Test in all cases: In vitro antibacterial activity, agar dilution MIC
Assay type in all cases: cell-based
A general note: In agar dilution, organisms are placed on agar that contains the substance at set levels.

In test [1] the test system is Haemophilus influenzae 1177. The following applies: H. influenzae 1177. How it is done: (§1) The antimicrobial spectra of a number of compounds of the invention were tested by the following method:
(§2) Twelve petri dishes containing successive aqueous dilutions of the test compound mixed with 10 ml of sterilized Brain Heart Infusion agar (Difco 0418-01-5) are prepared. Each plate is inoculated with 1:100 (or 1:10 for slow growing strains, primarily Micrococcus and Streptococcus) dilutions of up to 32 different microorganisms, using a Steers replicator block The inoculated plates are incubated at 35°-37° C. for 20-24 hours. In addition, a control plate, using BHI agar containing no test compound, is prepared and incubated at the beginning and end of each test.
(§3) An additional plate containing a compound having known susceptibility patterns for the organisms being tested and belonging to the same antibiotic class as the test compound is also prepared and incubated as a further control, as well as to provide test-to-test comparability. Erythromycin A was used for this purpose.
(§4) After incubation, each disk is read. The MIC is defined as the lowest concentration of drug yielding no growth, a slight haze, or sparsely isolated colonies on the inoculum spot as compared to the growth control.

For test [2], the system named is Haemophilus influenzae 1435. The settings on record: H. influenzae 1435. As to the method:
as §1, §2, §3, §4

In test [3] the test system is Haemophilus influenzae 503B. The following applies: H. influenzae 503B. How it is done:
as §1, §2, §3, §4

In test [4] the test system is Haemophilus influenzae 504. The settings on record: H. influenzae 504. How it is done: as §1, §2, §3, §4
Test [5] relates to Haemophilus influenzae 519A. The following applies: H. influenzae 519A. As to the method: as §1, §2, §3, §4
Test [6] has as its system Haemophilus influenzae 566A. The settings on record: H. influenzae 566A. As to the method:
as §1, §2, §3, §4

Test [7] has as its system Haemophilus influenzae 588A. The following applies: H. influenzae 588A. How it is done: as §1, §2, §3, §4
The test system of test [8] is Haemophilus influenzae 632A. The settings on record: H. influenzae 632A. How it is done:
as §1, §2, §3, §4

Test [9] relates to Haemophilus influenzae 667A. The following applies: H. influenzae 667A. How it is done:
as §1, §2, §3, §4

Test [10] concerns Haemophilus influenzae 747C. The following applies: H. influenzae 747C. How it is done: as §1, §2, §3, §4
The test system of test [11] is Haemophilus influenzae 751. The settings on record: H. influenzae 751. As to the method:
as §1, §2, §3, §4

The test system of test [12] is Haemophilus influenzae ATCC 10211. The settings on record: ATCC10211, H. influenzae ATCC 10211. As to the method: as §1, §2, §3, §4
Test [13] concerns Haemophilus influenzae ATCC 19418. The settings on record: ATCC19418, H. influenzae ATCC 19418. As to the method:
as §1, §2, §3, §4

The subject of test [14] is Haemophilus influenzae ATCC 9795. The following applies: ATCC9795, H. influenzae ATCC 9795. How it is done: as §1, §2, §3, §4
Test [15] deals with Haemophilus influenzae DILL AMP R. The settings on record: H. influenzae DILL AMP R. How it is done:
as §1, §2, §3, §4

Test [16] concerns Haemophilus influenzae SOL AMP R. The settings on record: H. influenzae SOL AMP R. How it is done: as §1, §2, §3, §4
Test [17] concerns Haemophilus influenzae SPK AMP R. The settings on record: H. influenzae SPK AMP R. As to the method:
as §1, §2, §3, §4

Structures are written as SMILES. Converted amounts (≈) assume the structure as drawn.

As to `CC[C@H]1OC(=O)[C@H](C)[C@@H](O[C@H]2C[C@@](C)(OC)[C@@H](O)[C@H](C)O2)[C@H](C)[C@@H](O[C@@H]2O[C@H](C)C[C@H](N(C)C)[C@H]2O)[C@](C)(O)C[C@@H](C)[C@@H](N2CCC(OC)(OC)CC2)[C@H](C)[C@@H](O)[C@]1(C)O` [Example 27], the MIC in test [1] worked out at 0.06 µg/mL (≈ 0.0695 µM); in test [2], 0.25 µg/mL (≈ 0.29 µM); in test [3], 1 µg/mL (≈ 1.16 µM); in test [4], 1 µg/mL (≈ 1.16 µM); in test [5], 0.25 µg/mL (≈ 0.29 µM); in test [6], 1 µg/mL (≈ 1.16 µM). The MIC in test [7] was found to be 1 µg/mL (≈ 1.16 µM); in test [8] it was 1 µg/mL (≈ 1.16 µM); in [9], 1 µg/mL (≈ 1.16 µM); in test [10] it was 1 µg/mL (≈ 1.16 µM); in test [11], 2 µg/mL (≈ 2.32 µM); in test [12] it was 0.5 µg/mL (≈ 0.579 µM). For the same compound, the MIC worked out at 1 µg/mL (≈ 1.16 µM) in [13]; 1 µg/mL (≈ 1.16 µM) in test [14]; 0.5 µg/mL (≈ 0.579 µM) in [15]; 1 µg/mL (≈ 1.16 µM) in test [16]; 1 µg/mL (≈ 1.16 µM) in test [17].
In the case of `CC[C@H]1OC(=O)[C@H](C)[C@@H](O[C@H]2C[C@@](C)(OC)[C@@H](O)[C@H](C)O2)[C@H](C)[C@@H](O[C@@H]2O[C@H](C)C[C@H](N(C)C)[C@H]2O)[C@](C)(O)C[C@@H](C)[C@@H](N2CCC(=O)CC2)[C@H](C)[C@@H](O)[C@]1(C)O` [Example 28], the MIC worked out at 0.25 µg/mL (≈ 0.306 µM) in test [1]; 0.25 µg/mL (≈ 0.306 µM) in test [2]; 0.25 µg/mL (≈ 0.306 µM) in [3]; 1 µg/mL (≈ 1.22 µM) in test [4]; 0.25 µg/mL (≈ 0.306 µM) in test [5]; 2 µg/mL (≈ 2.45 µM) in [6]. The MIC came out at 1 µg/mL (≈ 1.22 µM) in test [7]; 2 µg/mL (≈ 2.45 µM) in test [8]; 1 µg/mL (≈ 1.22 µM) in [9]; 0.5 µg/mL (≈ 0.612 µM) in test [10]; 2 µg/mL (≈ 2.45 µM) in test [11]; 5 µg/mL (≈ 6.12 µM) in test [12]. Besides, the MIC came out at 1 µg/mL (≈ 1.22 µM) in test [13]; 1 µg/mL (≈ 1.22 µM) in test [14]; 0.5 µg/mL (≈ 0.612 µM) in test [15]; 0.5 µg/mL (≈ 0.612 µM) in [16]; 0.5 µg/mL (≈ 0.612 µM) in test [17].

These data come from patent US5075289A, “9-R-azacyclic erythromycin antibiotics” (priority 1988, dated 1991).
